Laboratory results: patent publication US9371363B2, “Peptides and their use” (Novabiotics Limited, priority 2007, dated 2016)
Where two headings read alike, the source gives them in different places. Where no end group is shown, it is not given here.

Key:
Assay type in all cases: cell-based
S. aureus = test system: S. aureus
Procedure: (§1) Broth Dilution Antibacterial Susceptibility Testing
(§2) The sensitivity of relevant bacterial strains to the peptides (was determined using Clinical Laboratory Standard Institute (CLSI; formerly NCCLS) Approved Standards. Bacterial susceptibility was tested using “Methods for Dilution Antimicrobial Susceptibility Tests for Bacteria That Grow […]; Approved Standard—Seventh Edition M7-A7”

E. coli = test system: E. coli
Procedure: as §1, §2

P. acnes = test system: P. acnes
Procedure: as §1, §2

Ps. aeruginosa = settings: Ps. aeruginosa
Procedure: as §1, §2

Str. pyogenes = test system: Str. pyogenes
Procedure: as §1, §2

[1] = P. acnes, values marked * in mg/ml
[2] = S. aureus, values marked * in mg/ml

Compound | Minimum Inhibitory Concentration, antimicrobial activity, S. aureus (S. aureus) | Minimum Inhibitory Concentration, antimicrobial activity, P. acnes (P. acnes) | Minimum Inhibitory Concentration, antimicrobial activity, Ps. aeruginosa (Ps. aeruginosa; CLSI broth dilution) | also measured
N=C(N)NCCC[C@H](NC(=O)[C@H](CCCNC(=N)N)NC(=O)[C@H](CCCNC(=N)N)NC(=O)[C@H](CCCNC(=N)N)NC(=O)[C@H](CCCNC(=N)N)NC(=O)[C@H](CCCNC(=N)N)NC(=O)[C@@H](N)CCCNC(=N)N)C(=O)O [NP105, RRRRRRR (SEQ ID NO: 23)] | >2 mM |  |  | Minimum Inhibitory Concentration, antimicrobial activity, E. coli (E. coli): >2 mM
CC(=O)N[C@@H](CCCNC(=N)N)C(=O)N[C@@H](CCCNC(=N)N)C(=O)N[C@@H](CCCNC(=N)N)C(=O)N[C@@H](CCCNC(=N)N)C(=O)N[C@@H](CCCNC(=N)N)C(=O)N[C@@H](CCCNC(=N)N)C(=O)N[C@@H](CCCNC(=N)N)C(=O)N[C@@H](CCCNC(=N)N)C(=O)N[C@@H](CCCNC(=N)N)C(=O)N[C@@H](CCCNC(=N)N)C(=O)N[C@@H](CCCNC(=N)N)C(=O)N[C@@H](CCCNC(=N)N)C(=O)N[C@@H](CCCNC(=N)N)C(N)=O [NP338] |  | 0.005 mM | 0.0625 mM | 
N=C(N)NCCC[C@@H](N)C(=O)N[C@H](CCCNC(=N)N)C(=O)N[C@H](CCCNC(=N)N)C(=O)N[C@H](CCCNC(=N)N)C(=O)N[C@H](CCCNC(=N)N)C(=O)N[C@H](CCCNC(=N)N)C(=O)N[C@H](CCCNC(=N)N)C(=O)N[C@H](CCCNC(=N)N)C(=O)N[C@H](CCCNC(=N)N)C(=O)N[C@H](CCCNC(=N)N)C(=O)N[C@H](CCCNC(=N)N)C(=O)N[C@H](CCCNC(=N)N)C(=O)N[C@H](CCCNC(=N)N)C(=O)O [NP339, dRdRdRdRdRdRdRdRdRdRdRdRdR (SEQ ID NO: 31)] | 0.25 mM | 0.02 mM | 0.0625 mM | 
CC(=O)N[C@H](CCCNC(=N)N)C(=O)N[C@H](CCCNC(=N)N)C(=O)N[C@H](CCCNC(=N)N)C(=O)N[C@H](CCCNC(=N)N)C(=O)N[C@H](CCCNC(=N)N)C(=O)N[C@H](CCCNC(=N)N)C(=O)N[C@H](CCCNC(=N)N)C(=O)N[C@H](CCCNC(=N)N)C(=O)N[C@H](CCCNC(=N)N)C(=O)N[C@H](CCCNC(=N)N)C(=O)N[C@H](CCCNC(=N)N)C(=O)N[C@H](CCCNC(=N)N)C(=O)N[C@H](CCCNC(=N)N)C(N)=O [NP340, Ac-dRdRdRdRdRdRdRdRdRdRdRdRdR—NH2 (SEQ ID NO: 31)] | 0.25 mM | 0.02 mM | 0.125 mM | 
N=C(N)NCCC[C@H](NC(=O)[C@H](CCCNC(=N)N)NC(=O)[C@H](CCCNC(=N)N)NC(=O)[C@H](CCCNC(=N)N)NC(=O)[C@H](CCCNC(=N)N)NC(=O)[C@H](CCCNC(=N)N)NC(=O)[C@H](CCCNC(=N)N)NC(=O)[C@H](CCCNC(=N)N)NC(=O)[C@H](CCCNC(=N)N)NC(=O)[C@H](CCCNC(=N)N)NC(=O)[C@H](CCCNC(=N)N)NC(=O)[C@H](CCCNC(=N)N)NC(=O)[C@@H](N)CCCNC(=N)N)C(=O)O [NP351, RRRRRRRRRRRRR (SEQ ID NO: 14)] |  |  | 0.125 mM | 
(K)n, n = 103-205 [NP101] |  |  |  | Minimum Inhibitory Concentration, antimicrobial activity, P. acnes (P. acnes; [1]): 0.1* mg/ml; Minimum Inhibitory Concentration, antimicrobial activity, S. aureus (S. aureus; [2]): <0.0313* mg/ml; Minimum Inhibitory Concentration, antimicrobial activity, Ps. aeruginosa (Ps. aeruginosa; values marked * in mg/ml): 0.125* mg/ml
(R)n, n = 28-86 [NP121] |  |  |  | Minimum Inhibitory Concentration, antimicrobial activity, P. acnes (P. acnes; [1]): 0.01* mg/ml; Minimum Inhibitory Concentration, antimicrobial activity, S. aureus (S. aureus; [2]): 0.0313* mg/ml; Minimum Inhibitory Concentration, antimicrobial activity, Ps. aeruginosa (Ps. aeruginosa; values marked * in mg/ml): 0.0625* mg/ml
KKKKKKK [NP104, KKKKKKK (SEQ ID NO: 35)] | >2 mM |  |  | Minimum Inhibitory Concentration, antimicrobial activity, Str. pyogenes (Str. pyogenes): 1 mM; Minimum Inhibitory Concentration, antimicrobial activity, E. coli (E. coli): >2 mM
